Reference: US11619628B2, “Device and determination system using same” (Osaka University, priority 2017, dated 2023)

Key:
UnaG protein = UnaG protein (UniProtKB/Swiss-Prot: P0DM59.1, GenBank: AB763906.1); details: binding ability to indirect bilirubin; Kumagai et al., Cell 2013, 153, 1602-1611; read-out: dissociation constant; cited from earlier work
[1] = Room-temperature storage of lyophilized samples, bilirubin affinity re-measured; assay type: physicochemical; details: lyophilized sample stored at room temperature; FIG. 5
Protocol: 500 μL of the purified UnaG (CΔ0)-NLuc (NΔ1) fusion protein was added to a 15-mL Falcon tube and frozen with liquid nitrogen. Thereafter, a powder of the protein solution was obtained by a lyophilizer. The powder was stored at room temperature.
After the preparation of the lyophilized samples, in order to investigate how long the activity is maintained, the lyophilized samples that had been […] were stored at room temperature every few days, and the affinity for bilirubin was measured according to the method described in the above item 7.

C=CC1=C(C)/C(=C/c2[nH]c(Cc3[nH]c(/C=C4\NC(=O)C(C)=C4C=C)c(C)c3CCC(=O)O)c(CCC(=O)O)c2C)NC1=O [bilirubin]
Kd (UnaG protein): 98 pM

B1: UnaG (CΔ0)-NLuc (NΔ1) fusion protein: Fusion of UnaG (CΔ0) and NLuc (NΔ1) at the KpnI site, linker GT; amino acid sequence SEQ ID NO: 12 (protein)
chain: GGSGMVEKFVGTWKIADSHNFGEYLKAIGAPKELSDGGDATTPTLYISQKDGDKMTVKIENGPPTFLDTQVKFKLGEEFDEFPSDRRKGVKSVVNLVGEKYVQKWDGKETTYVREIKDGKLVVTLTMGDVVAVRSYRRATEGTVFTLEDFVGDWRQTAGYNLDQVLEQGGVSSLFQNLGVSVTPIQRIVLSGENGLKIDIHVIIPYEGLSGDQMGQIEKIFKVVYPVDDHHFKVILHYGTLVIDGVTPNMIDYFGRPYEGIAVFDGKKITVTGTLWNGNKIIDERLINPDGSLLFRVTINGVTGWRLCERILA
modifications: UnaG(C 0)-NLuc(N 1)
activity (affinity for bilirubin) after storage [1]: activity was maintained
